From patent US4598080A, “Certain-2-methyl-6-{4-[1-phenyl-1-hydroxypropyl]-phenoxymethyl}pyridines which inhibit microsonal monoxygenase systems in liver” (Richter Gedeon Vegyeszeti Gyar Rt, priority 1982, dated 1986)

Assays:
acute toxicity = details: rat, in vivo, po; H-Wistar rats of both sexes, single 500 mg./kg. p.o., observed for 14 days; read-out: Perished animals (%)
Experimental: The acute toxicity of the compounds of the formula (I) was tested on H-Wistar rats of both sexes, weighing 160 to 180 g. each. The compounds were administered in a single 500 mg./kg. dose, orally.

aminopyrine demethylase = aminopyrine demethylase activity of liver after oral treatment; type: in vivo, rat; details: female H.Wistar rats, single 40 mg./kg. oral dose, liver taken two hours after treatment, results in % of the control (control = 260.7 ± 11.2 nmoles/g/min), mean ± S.E., the values are: activity
Experimental: The enzyme inhibiting activity of the compounds of the formula (I) was further tested by determining the activity of the polysubstrate monooxygense enzyme system of the liver after treatment with the placebo and the compounds according to the invention, respectively. Female H.Wistar rats weighing 50 to 60 g. each were administered a single 40 mg./kg. dose of the test compounds, orally. Two hours after treatment the animals were decapitated and the livers were eliminated. After rinsing with a physiological saline solution at 0° C., drying and weighing, the livers were homogenized in a 0.1 molar Tris-HCl buffer (pH=7.2), containing 1.15% of potassium chloride at 0° C., centrifuged at 9000 g for 20 minutes, and the supernatant (postmitochondrial fraction) was used for further investigations. The microsomal fraction was prepared following the method developed by Cinti D. L. et al.: Biochem. Pharmacol., 21, 3249 (1972). The activity of aniline hydroxylase was determined from the velocity of p-amino-phenol formation according to Chabra R. S. et al.: Toxicol. Appl. Pharmacol., 22, 50 ( 1972). The activity of the aminopyrine demethylase was measured from the amount of the formaldehyde formed, according to Gourlay G. K. et al.: Biochem. Pharmacol., 27, 965 (1978). The control groups were treated with a placebo.

hexobarbital oxidase = assay: hexobarbital narcosis period (change of hexobarbital oxidase activity in vivo); set-up: species or system rat; details: mean ± S.E.; for Hexobarbital Narcosis period in % of the control, 1 hour: 1 hour after administration; for Hexobarbital Narcosis period in % of the control (24 hours): 24 hours after administration
Experimental: The enzyme inhibiting activity of the new compounds was tested in vivo, by measuring the change of hexobarbital oxidase activity. Female Hann.-Wistarrats, each weighing 50 to 60 g. were treated orally with a single 40 mg./kg. dose of the test compound. 1 and 24 hours after the administration of the active ingredient, the animals were narcotized with a 60 mg./kg. i.v. dosage of hexobarbital sodium, and the time elapsed until complete wakening was measured (Noordhoek, J.: Eur. J. Pharmacol., 3, 242 (1968)). The data were recorded, and the mean values, the standard errors, as well as the percentage increase with respect to the controls were calculated for each group. […] The hexobarbital concentration of the plasm, measured on the instant wakening, was the same for both the treated and the control animals, and thus the increase of narcosis period was not due to a certain central nervous interaction (Jori, A. et al.: Biochem. Pharmacol., 19, 2687 (1970)).

[1] = from H. Ippen: Index Pharmacorum (1970); cited from earlier work
[2] = female Hann.-Wistar rats, single 40 mg./kg. oral dose, hexobarbital sodium 60 mg./kg. i.v.
[3] = reference compound, dose 100 mg/kg

SMILES	mortality at 336 h (acute toxicity) [%]	Aminopyrine demethylase (aminopyrine demethylase) [%]	Hexobarbital Narcosis period in % of the control, 1 hour (hexobarbital oxidase; [2])	Hexobarbital Narcosis period in % of the control (24 hours) (hexobarbital oxidase; [2])	anticonvulsive side effect [1]	Hexobarbital Narcosis period in % of the control, 1 hour (hexobarbital oxidase; [3])	Hexobarbital Narcosis period in % of the control (24 hours) (hexobarbital oxidase; [3])
CCC(O)(c1ccc(Cl)cc1)c1ccc(OCc2cccc(C)n2)cc1 (centres unmarked) [A, 2-methyl-6-{4-[1-(4-chlorophenyl)-1-hydroxypropyl]-phenoxymethyl}-pyridine]	0	55 ± 4.4	259 ± 11.4 % of the control	155 ± 9.6 % of the control			
CCC(O)(c1ccc(OCc2cccc(C)n2)cc1)c1cc(C)ccc1C (centres unmarked) [B, 2-methyl-6-{4-[1-(2,5-dimethylphenyl)-1-hydroxypropyl]-phenoxymethyl}-pyridine]	0	63 ± 4.4	135 ± 6.7 % of the control	174 ± 7.2 % of the control			
CCCC(C(=O)OCCN(CC)CC)(c1ccccc1)c1ccccc1 [Proadiphene, (2-diethylaminoethyl)-α,α-diphenyl valerate, reference compound]					exerted an anticonvulsive side effect	241 ± 9.6 % of the control	44 ± 5.7 % of the control
